The results in this text go back to ChEMBL document CHEMBL1201862, “PubChem BioAssay data set” (2004).

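These data come from cells grown in 96-well plates and exposed to compound for 48 hours at five concentrations. Here, GI50 denotes the concentration required for 50% inhibition of growth.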 Calls of active or inactive are those of the source. Rule as the data show it: active = GI50 up to about 1.1 µM and inactive = higher.

Test systems include 786-0; HOP-62; Hs-578T; IGROV-1; K562; KM12; LOX IMVI; M14; MDA-MB-231; MOLT-4; NCI-H522; PC-3; SK-MEL-28; SK-OV-3; SN12C; SNB-19; SNB-75; T47D; TK-10; UO-31.
Holding throughout (assay): NCI-60 cell line screen, 48 h

`O=[N+]([O-])C(Cl)C(Cl)C(Cl)=C(Cl)Cl` (stereo not given): the GI50 in the assay on 786-0 is 7.85 µM (inactive); with HOP-62, 41.2 µM (inactive); in the assay with Hs-578T, 25.1 µM (inactive); in the assay on IGROV-1 it was 13.3 µM (inactive); with K562 it was 29.8 µM (inactive); in the assay on KM12, > 66.7 µM (inactive). For the same compound, the GI50 in the assay on LOX IMVI was 14.4 µM (inactive); in the assay on M14, 13.8 µM (inactive); in the assay on MDA-MB-231 it was 16.2 µM (inactive); with MOLT-4, 19.1 µM (inactive); with NCI-H522 it was 21.4 µM (inactive); in the assay with PC-3 it was > 41.3 µM (inactive). The GI50 in the assay on SK-MEL-28 was 18.5 µM (inactive); in the assay on SK-OV-3 it was 19.5 µM (inactive); in the assay with SN12C it was 33.7 µM (inactive); in the assay with SNB-19, 54 µM (inactive); in the assay on SNB-75, 32.7 µM (inactive); in the assay with T47D, 0.547 µM (active). The figures for the GI50 in the assay with TK-10 and in the assay on UO-31 were 19.4 µM (inactive) and > 31.6 µM (inactive), respectively.

`O=[N+]([O-])c1ccc(/N=N\c2c(O)ccc3ccccc23)c([N+](=O)[O-])c1`: the GI50 in the assay on 786-0 was > 100 µM (inactive); in the assay with HOP-62, > 100 µM (inactive); in the assay on Hs-578T, > 100 µM (inactive); with IGROV-1, > 32.7 µM (inactive); in the assay on K562, 19.8 µM (inactive); in the assay on KM12, > 100 µM (inactive). The GI50 in the assay on LOX IMVI is > 100 µM (inactive); in the assay with M14, > 100 µM (inactive); in the assay with MDA-MB-231 it was > 48.6 µM (inactive); in the assay with MOLT-4, 70.6 µM (inactive); in the assay with NCI-H522, > 100 µM (inactive); in the assay with PC-3, > 100 µM (inactive). In addition, the GI50 in the assay with SK-MEL-28, with SK-OV-3, with SN12C, in the assay on SNB-19, with SNB-75 and in the assay with T47D was > 100 µM (inactive) in each case. For the same compound, the GI50 in the assay with TK-10 is > 90.4 µM (inactive); in the assay on UO-31 it was > 100 µM (inactive).

Take `Cc1ccc(Cc2n[nH]c(=O)n2/N=C\CC/C=N\n2c(Cc3ccc(C)cc3)n[nH]c2=O)cc1`: the GI50 is 18.5 µM (inactive) in the assay with 786-0; 6.37 µM (inactive) in the assay with HOP-62; 15.5 µM (inactive) with Hs-578T; 33.3 µM (inactive) in the assay on IGROV-1; 96.8 µM (inactive) in the assay on K562; > 100 µM (inactive) in the assay on KM12. Moreover, the GI50 was 16.9 µM (inactive) with LOX IMVI; 27.3 µM (inactive) in the assay with M14; 31.3 µM (inactive) in the assay on MDA-MB-231; 19.1 µM (inactive) with MOLT-4; > 100 µM (inactive) with NCI-H522; 31.3 µM (inactive) in the assay with PC-3. The GI50 with SK-MEL-28 is 33.5 µM (inactive); in the assay with SK-OV-3, 36.6 µM (inactive); in the assay with SN12C, 44.7 µM (inactive); in the assay with SNB-19 it was 39.6 µM (inactive); with SNB-75, 16.6 µM (inactive); with T47D it was 38.6 µM (inactive). In addition, the GI50 in the assay on TK-10 and in the assay on UO-31 was > 100 µM (inactive) each time.

With `COc1cc2c(cc1OCCCC(=O)Nc1cc(C(=O)Nc3cc(C(=O)Nc4cc(C(=O)NCCCN(C)C)n(C)c4)n(C)c3)n(C)c1)N=C[C@@H]1CCCN1C2=O`, the GI50 in the assay on 786-0 was 1.12 µM (active); in the assay with HOP-62 it was 3.56 µM (inactive); with Hs-578T, 2.94 µM (inactive); in the assay with IGROV-1, 3.1 µM (inactive); in the assay with K562 it was 2.19 µM (inactive); with KM12 it was 16.3 µM (inactive). The GI50 with LOX IMVI was 0.933 µM (active); in the assay on M14 it was 1.66 µM (inactive); with MDA-MB-231, 2.3 µM (inactive); in the assay with MOLT-4, 3.2 µM (inactive); in the assay on NCI-H522, 0.224 µM (active); in the assay with PC-3, 2.28 µM (inactive). For the same compound, the GI50 in the assay on SK-MEL-28 is 2.15 µM (inactive); in the assay with SK-OV-3, 14.6 µM (inactive); in the assay on SN12C, 1.2 µM (inactive); in the assay on SNB-19, 6.32 µM (inactive); in the assay with SNB-75 it was 3.3 µM (inactive); in the assay on T47D it was 1.79 µM (inactive). The GI50 in the assay with TK-10 is 1.87 µM (inactive); in the assay on UO-31 it was 1.66 µM (inactive).

Regarding `CCC(C)C(N)C(=O)N/N=C\c1c2c(nc3ccccc13)-c1cc3c(c(=O)n1C2)COC(=O)[C@]3(O)CC` (stereo not given in full), the GI50 in the assay with 786-0 was 0.0361 µM (active); in the assay on HOP-62, 0.0113 µM (active); in the assay with Hs-578T, 1.82 µM (inactive); with IGROV-1, 0.832 µM (active); in the assay on K562, 0.063 µM (active); with KM12 it was 0.925 µM (active). The GI50 with LOX IMVI was 0.0132 µM (active); with M14, 0.039 µM (active); in the assay on MDA-MB-231 it was 2.37 µM (inactive); in the assay on MOLT-4, < 0.01 µM (active); in the assay on NCI-H522 it was < 0.048 µM (active); in the assay on PC-3 it was 0.387 µM (active). Further, the GI50 in the assay on SK-MEL-28 was 0.259 µM (active); in the assay with SK-OV-3 it was 0.0528 µM (active); in the assay with SN12C it was 0.0155 µM (active); in the assay on SNB-19, < 0.01 µM (active); with SNB-75, 0.0256 µM (active); in the assay on T47D it was < 0.01 µM (active). Further, the figures for the GI50 with TK-10 and in the assay with UO-31 were 4.02 µM (inactive) and 0.12 µM (active), respectively.

`CC(C)=CCC[C@@H](C)c1c2ncc[nH]c-2c(C)c(=O)c1O`: the GI50 in the assay on 786-0 was 39.4 µM (inactive); in the assay on HOP-62, 19.2 µM (inactive); in the assay with Hs-578T it was 23.2 µM (inactive); in the assay with IGROV-1 it was 26.7 µM (inactive); in the assay on K562 it was 21.7 µM (inactive); in the assay with KM12, 10.6 µM (inactive). Also, the GI50 was 25.1 µM (inactive) with LOX IMVI; 27.9 µM (inactive) with M14; 25.2 µM (inactive) in the assay with MDA-MB-231; 10.4 µM (inactive) with MOLT-4; 1.76 µM (inactive) in the assay with NCI-H522; 35.2 µM (inactive) with PC-3. Moreover, the GI50 in the assay with SK-MEL-28 is 48.5 µM (inactive); in the assay on SK-OV-3, 31.8 µM (inactive); in the assay with SN12C, 28.8 µM (inactive); in the assay with SNB-19, 25.9 µM (inactive); with SNB-75, 28.2 µM (inactive); in the assay with T47D, 25.9 µM (inactive). Also, the results for the GI50 in the assay with TK-10 and in the assay with UO-31 were 31.1 µM (inactive) and 6.92 µM (inactive), respectively.

With `CCN(CC)c1ccc2cc(C(N)=S)c(=N)oc2c1`, the GI50 in the assay on 786-0, in the assay on HOP-62, with Hs-578T, with IGROV-1, in the assay on K562 and with KM12 was > 100 µM (inactive) throughout. Further, the GI50 in the assay on LOX IMVI, in the assay with M14, with MDA-MB-231, in the assay with MOLT-4, in the assay on NCI-H522 and with PC-3 was > 100 µM (inactive) each time. Besides, the GI50 in the assay with SK-MEL-28, in the assay on SK-OV-3, in the assay on SN12C, in the assay on SNB-19, in the assay on SNB-75 and in the assay on T47D was > 100 µM (inactive) throughout. In addition, the GI50 in the assay on TK-10 and with UO-31 was > 100 µM (inactive) each time.

`Cc1cc(C2(c3cc(C)c(O)c(C(=O)O)c3)OS(=O)(=O)c3ccccc32)cc(C(=O)O)c1O`: the GI50 in the assay on 786-0, with HOP-62, in the assay on Hs-578T, in the assay with IGROV-1, in the assay with K562 and with KM12 was > 100 µM (inactive) in each case. The GI50 in the assay on LOX IMVI is > 100 µM (inactive); in the assay on M14, > 100 µM (inactive); in the assay on MDA-MB-231 it was > 100 µM (inactive); in the assay with MOLT-4 it was 0.205 µM (active); in the assay on NCI-H522, > 100 µM (inactive); in the assay with PC-3 it was > 100 µM (inactive). In addition, the GI50 in the assay with SK-MEL-28, in the assay with SK-OV-3, with SN12C, with SNB-19, in the assay with SNB-75 and in the assay on T47D was > 100 µM (inactive) throughout. Besides, the GI50 with TK-10 and in the assay on UO-31 was > 100 µM (inactive) throughout.

In the case of `O=C(O)c1cc2ccccc2c(S(=O)(=O)O)c1O`, the GI50 in the assay with 786-0, in the assay with HOP-62, in the assay on Hs-578T, in the assay on IGROV-1, with K562 and in the assay on KM12 was > 100 µM (inactive) each time. The GI50 in the assay on LOX IMVI, with M14, in the assay with MDA-MB-231, with MOLT-4, in the assay with NCI-H522 and in the assay with PC-3 was > 100 µM (inactive) in each case. Also, the GI50 in the assay with SK-MEL-28, with SK-OV-3, with SN12C, in the assay with SNB-19, in the assay with SNB-75 and with T47D was > 100 µM (inactive) each time. In addition, the GI50 in the assay with TK-10 and in the assay with UO-31 was > 100 µM (inactive) each time.

Consider `O=C1c2ccccc2-c2cc([N+](=O)[O-])c([N+](=O)[O-])cc21`, for which the GI50 is 2.25 µM (inactive) with 786-0; 1.58 µM (inactive) in the assay with HOP-62; 3.78 µM (inactive) with Hs-578T; 1.49 µM (inactive) in the assay with IGROV-1; 2.16 µM (inactive) in the assay with K562; 1.61 µM (inactive) with KM12. Moreover, the GI50 in the assay with LOX IMVI was 0.861 µM (active); in the assay on M14, 1.77 µM (inactive); in the assay on MDA-MB-231, 1.8 µM (inactive); in the assay on MOLT-4 it was 0.482 µM (active); in the assay on NCI-H522, 1.05 µM (active); with PC-3, 1.55 µM (inactive). Also, the GI50 in the assay with SK-MEL-28 is 2.9 µM (inactive); in the assay with SK-OV-3, 2.66 µM (inactive); with SN12C, 1.86 µM (inactive); in the assay on SNB-19 it was 1.71 µM (inactive); with SNB-75, 1.82 µM (inactive); in the assay with T47D, 0.748 µM (active). For the same compound, the GI50 is 1.48 µM (inactive) with TK-10 and 1.67 µM (inactive) in the assay with UO-31.
